Here are results for two molecules from patent US20190233287A1, “Methods To Prepare Haloamines Using At Least One Solid Reactant And Products Made Therefrom” (Buckman Laboratories International, Inc., priority 2018, published 2019).

Usually pKa stands for the negative logarithm of the acid dissociation constant.

Where only a bound is given, the exact number is not on record here.

Data set [1] is described as follows: Chlorate ion concentration by Ion Chromatography. The format is physicochemical. The following applies: aqueous solutions of the Dantochlor product (1.5-72 ppm); detection limit 0.5 ppm. On the procedure: The chlorate ion concentration was also analyzed for various aqueous solutions of the Dantochlor product (1.5-72 ppm); chlorate ion was not detected above the method's detection limit of 0.5 ppm.

The nature of data set [2]: Chlorine content, MCA content and pH of solutions, measured at once and again after 1 hour. The format is physicochemical. The conditions noted are these: 0.1 wt % Dantochlor aqueous solution, pH 11.2, measured instantly.
Experimental: In this experiment the chlorine-releaser was granular Dantochlor (DCDMH), and the ammonium source was BUSPERSE 2454 (already in the form of an aqueous ammonium sulfate). A one liter aqueous solution containing 0.1 wt % Dantochlor was prepared. This aqueous solution was adjusted to a pH of 11.2 using NaOH (50%).
A molar equivalent amount of BUSPERSE 2454 was ±0.7 ml for a one liter solution. A 30% molar overdosage was used and thus, 1 ml of BUSPERSE 2454 was added to the aqueous solution of Dantochlor.
For data set [3] the following is noted: weak acid; cited from earlier work.

In data set [1], `CC1(C)C(=O)N(Cl)C(=O)N1Cl` [Dantochlor, dichlorodimethylhydantoin] had a chlorate ion concentration of less than 0.5 ppm. In data set [2], the “Free Cl2” value amounted to 274 ppm Cl2 and the “Total Cl2” value is 600 ppm Cl2.

In the case of `OCl` [HOCl, hypochlorous acid], the pKa in data set [3] is recorded as 7.5.
